From patent US12077503B2, “Substituted cyclic amides and their use as herbicides” (FMC CORPORATION, priority 2015, dated 2024)

Legend:
Format in all cases: in vivo
[1] = test system: ryegrass, Italian (Italian ryegrass, Lolium multiflorum); test: Test A postemergence
Source text: (§1) Seeds of plant species selected from barnyardgrass (Echinochloa crus-galli), Kochia (Kochia scoparia), ragweed (common ragweed, Ambrosia elatior), ryegrass, Italian (Italian ryegrass, Lolium multiflorum), crabgrass, large (Digitaria sanguinalis), giant foxtail (Setaria faberii), green foxtail (Setaria viridis), morningglory (Ipomoea spp.), pigweed (Amaranthus retroflexus), velvetleaf (Abutilon theophrasti), wheat (Triticum aestivum), and corn (Zea mays) were planted into a blend of loam soil and sand and treated preemergence with a directed soil spray using test chemicals formulated in anon-phytotoxic solvent mixture which included a surfactant.
(§2) At the same time, plants selected from these crop and weed species and also blackgrass (Alopecurus myosuroides), and Galium (catchweed bedstraw, Galium aparine) were planted in pots containing the same blend of loam soil and sand and treated with postemergence applications of test chemicals formulated in the same manner. Plants ranged in height from 2 to 10 cm and were in the one- to two-leaf stage for the postemergence treatment. Treated plants and untreated controls were maintained in a greenhouse for approximately 10 d, after which time all treated plants were compared to untreated controls and visually evaluated for injury. Plant response ratings, summarized in Table A, are based on a 0 to 100 scale where 0 is no effect and 100 is complete control. A dash (-) response means no test result.

[2] = test system: Kochia (Kochia scoparia); test: Test A postemergence
Source text: as §1, §2

[3] = test system: ragweed (common ragweed, Ambrosia elatior); test: Test A postemergence
Source text: as §1, §2

[4] = test system: barnyardgrass (Echinochloa crus-galli); test: Test A postemergence
Source text: as §1, §2

[5] = test system: giant foxtail (Setaria faberii); test: Test A postemergence
Source text: as §1, §2

[6] = test system: Galium (catchweed bedstraw, Galium aparine); test: Test A postemergence
Source text: as §1, §2

[7] = test system: pigweed (Amaranthus retroflexus); test: Test A postemergence
Source text: as §1, §2

[8] = test system: wheat (Triticum aestivum); test: Test A postemergence
Source text: as §1, §2

[9] = test system: blackgrass (Alopecurus myosuroides); test: Test A postemergence
Source text: as §1, §2

[10] = test system: corn (Zea mays); test: Test A postemergence
Source text: as §1, §2

[11] = test system: ryegrass, Italian (Italian ryegrass, Lolium multiflorum); test: Test A preemergence; details: Preemergence; for Plant response rating, Ryegrass, Italian: 125 g ai/ha, visual injury after approximately 10 d, 0 to 100 scale where 0 is no effect and 100 is complete control; for Ryegrass, Italian plant response rating (0 to 100 scale, 0 is no effect, 100 is complete control): 500 g ai/ha, visual injury approx. 10 d
Source text: as §1, §2

[12] = test system: Kochia (Kochia scoparia); test: Test A preemergence; details: Preemergence; for Plant response rating, Kochia: 125 g ai/ha, visual injury after approximately 10 d, 0 to 100 scale where 0 is no effect and 100 is complete control; for Kochia plant response rating (0 to 100 scale, 0 is no effect, 100 is complete control): 500 g ai/ha, visual injury approx. 10 d
Source text: as §1, §2

[13] = test system: ragweed (common ragweed, Ambrosia elatior); test: Test A preemergence; details: Preemergence; for Plant response rating, Ragweed: 125 g ai/ha, visual injury after approximately 10 d, 0 to 100 scale where 0 is no effect and 100 is complete control; for Ragweed plant response rating (0 to 100 scale, 0 is no effect, 100 is complete control): 500 g ai/ha, visual injury approx. 10 d
Source text: as §1, §2

[14] = test system: barnyardgrass (Echinochloa crus-galli); test: Test A preemergence; details: Preemergence; for Plant response rating, Barnyardgrass: 125 g ai/ha, visual injury after approximately 10 d, 0 to 100 scale where 0 is no effect and 100 is complete control; for Barnyardgrass plant response rating (0 to 100 scale, 0 is no effect, 100 is complete control): 500 g ai/ha, visual injury approx. 10 d
Source text: as §1, §2

[15] = test system: giant foxtail (Setaria faberii); test: Test A preemergence; details: Preemergence; for Plant response rating, Foxtail, Giant: 125 g ai/ha, visual injury after approximately 10 d, 0 to 100 scale where 0 is no effect and 100 is complete control; for Foxtail, Giant plant response rating (0 to 100 scale, 0 is no effect, 100 is complete control): 500 g ai/ha, visual injury approx. 10 d
Source text: as §1, §2

[16] = test system: pigweed (Amaranthus retroflexus); test: Test A preemergence; details: Preemergence; for Plant response rating, Pigweed: 125 g ai/ha, visual injury after approximately 10 d, 0 to 100 scale where 0 is no effect and 100 is complete control; for Pigweed plant response rating (0 to 100 scale, 0 is no effect, 100 is complete control): 500 g ai/ha, visual injury approx. 10 d
Source text: as §1, §2

[17] = 125 g ai/ha, postemergence, visual rating after approx. 10 d, 0 to 100 scale (0 no effect, 100 complete control)
[18] = Postemergence, 500 g ai/ha, 0 to 100 scale where 0 is no effect and 100 is complete control

Structure (SMILES)	Plant response rating, Ryegrass, Italian [1, 17]	Plant response rating, Ryegrass, Italian [1, 18]	Plant response rating, Kochia [2, 17]	Plant response rating, Kochia [2, 18]	Plant response rating, Ragweed [3, 17]	Plant response rating, Ragweed [3, 18]	Plant response rating, Barnyardgrass [4, 17]	Plant response rating, Barnyardgrass [4, 18]	Plant response rating, Foxtail, Giant [5, 17]	Plant response rating, Foxtail, Giant [5, 18]	Plant response rating, Galium [6, 17]	Plant response rating, Galium [6, 18]	Plant response rating, Pigweed [7, 17]	Plant response rating, Pigweed [7, 18]	Plant response rating, Wheat [8, 17]	Plant response rating, Wheat [8, 18]	Plant response rating, Blackgrass [9, 17]	Plant response rating, Blackgrass [9, 18]	Plant response rating, Corn [10, 17]	Plant response rating, Corn [10, 18]	also measured
CN1CC(c2ccc(OC(F)F)cc2)C(C(=O)Nc2cccc(F)c2F)C1=O (centres unmarked) [Compound 562]	70	80	70	80	50	60	90	90	90	90	60	70	70	80	50	80	60	70	40	80	Plant response rating, Ryegrass, Italian [11]: 60; Ryegrass, Italian plant response rating (0 to 100 scale, 0 is no effect, 100 is complete control) [11]: 90; Plant response rating, Kochia [12]: 70; Kochia plant response rating (0 to 100 scale, 0 is no effect, 100 is complete control) [12]: 90; Plant response rating, Ragweed [13]: 70; Ragweed plant response rating (0 to 100 scale, 0 is no effect, 100 is complete control) [13]: 80; Plant response rating, Barnyardgrass [14]: 90; Barnyardgrass plant response rating (0 to 100 scale, 0 is no effect, 100 is complete control) [14]: 90; Plant response rating, Foxtail, Giant [15]: 90; Foxtail, Giant plant response rating (0 to 100 scale, 0 is no effect, 100 is complete control) [15]: 90; Plant response rating, Pigweed [16]: 90; Pigweed plant response rating (0 to 100 scale, 0 is no effect, 100 is complete control) [16]: 90
Cc1ccc(C2CN(C)C(=O)C2C(=O)Nc2ccccc2F)c(F)c1 (centres unmarked) [Compound 560]	0	60	40	80	0	20	90	100	90	90	40	60	0	20	0	50	30	50	0	30	Plant response rating, Ryegrass, Italian [11]: 0; Ryegrass, Italian plant response rating (0 to 100 scale, 0 is no effect, 100 is complete control) [11]: 70; Plant response rating, Kochia [12]: 60; Kochia plant response rating (0 to 100 scale, 0 is no effect, 100 is complete control) [12]: 80; Plant response rating, Ragweed [13]: 0; Ragweed plant response rating (0 to 100 scale, 0 is no effect, 100 is complete control) [13]: 0; Plant response rating, Barnyardgrass [14]: 90; Barnyardgrass plant response rating (0 to 100 scale, 0 is no effect, 100 is complete control) [14]: 100; Plant response rating, Foxtail, Giant [15]: 100; Foxtail, Giant plant response rating (0 to 100 scale, 0 is no effect, 100 is complete control) [15]: 100; Plant response rating, Pigweed [16]: 0; Pigweed plant response rating (0 to 100 scale, 0 is no effect, 100 is complete control) [16]: 40
CN1CC(c2ccc(Br)cc2)C(C(=O)Nc2ccccc2F)C1=O (centres unmarked) [Compound 563]	40	40	70	80	0	50	90	90	90	90	70	70	0	40	20	40	40	50	20	50	Plant response rating, Ryegrass, Italian [11]: 0; Ryegrass, Italian plant response rating (0 to 100 scale, 0 is no effect, 100 is complete control) [11]: 0; Plant response rating, Kochia [12]: 70; Kochia plant response rating (0 to 100 scale, 0 is no effect, 100 is complete control) [12]: 80; Plant response rating, Ragweed [13]: 50; Ragweed plant response rating (0 to 100 scale, 0 is no effect, 100 is complete control) [13]: 60; Plant response rating, Barnyardgrass [14]: 90; Barnyardgrass plant response rating (0 to 100 scale, 0 is no effect, 100 is complete control) [14]: 100; Plant response rating, Foxtail, Giant [15]: 90; Foxtail, Giant plant response rating (0 to 100 scale, 0 is no effect, 100 is complete control) [15]: 100; Plant response rating, Pigweed [16]: 70; Pigweed plant response rating (0 to 100 scale, 0 is no effect, 100 is complete control) [16]: 80
Cc1ccc(C2CN(C)C(=O)C2C(=O)Nc2ccccc2S(C)(=O)=O)c(F)c1 (centres unmarked) [Compound 558]	0	40	20	70	0	40	80	100	70	90	30	60	0	0	0	40	20	60	0	20	Plant response rating, Ryegrass, Italian [11]: 0; Ryegrass, Italian plant response rating (0 to 100 scale, 0 is no effect, 100 is complete control) [11]: 60; Plant response rating, Kochia [12]: 70; Kochia plant response rating (0 to 100 scale, 0 is no effect, 100 is complete control) [12]: 80; Plant response rating, Ragweed [13]: 50; Ragweed plant response rating (0 to 100 scale, 0 is no effect, 100 is complete control) [13]: 70; Plant response rating, Barnyardgrass [14]: 90; Barnyardgrass plant response rating (0 to 100 scale, 0 is no effect, 100 is complete control) [14]: 100; Plant response rating, Foxtail, Giant [15]: 90; Foxtail, Giant plant response rating (0 to 100 scale, 0 is no effect, 100 is complete control) [15]: 100; Plant response rating, Pigweed [16]: 30; Pigweed plant response rating (0 to 100 scale, 0 is no effect, 100 is complete control) [16]: 70
